The text below walks through data of patent publication EP4473972A1, “COMBINATIONS COMPRISING AN ATR INHIBITOR WITH SYNERGISTIC EFFECT AGAINST GLIOMAS” (Eberhard-Karls-Universität Tübingen, priority 2023, dated 2024).

One test deals with LN229 cells. Kind of test: RNA-Sequencing (RNAseq). The format is cell-based, human. As to the method:
(§1) For this, the inventors seeded the cells on day one and treated them on the next day with IC50 concentrations of AZD6738 for up to 72 h. They extracted the RNA using the Qiagen RNeasy Mini kit (Qiagen, Venlo, NL) according to manufacturer's protocol. For RNA sequencing, the inventors enriched the mRNA fraction using polyA capture from 200 ng of total RNA using the NEBNext Poly(A) mRNA Magnetic Isolation Module (NEB). They used the NEB Next Ultra II Directional RNA Library Prep Kit for Illumina (NEB) to prepare mRNA libraries according to manufacturer's instructions. The libraries were sequenced as paired-end 50 bp reads on an Illumina NovaSeq6000 (Illumina) with a sequencing depth of approximately 25 million clusters per sample. The inventors performed RNA raw data QC and processing using megSAP (version 0.2-135-gd002274) combined with ngs-bits package (version 2019_11-42-gflb98e63). To align the reads to the GRCh38 they used STAR v2.7.3a and alignment quality was analyzed using ngs-bits. Normalized read counts for all genes were obtained using Subread (v2.0.0) and edgeR (v3.26.6). The inventors used the R package "DESeq2" for further analyses. They defined differentially expressed genes (DEGs) as log2 fold-change (LFC) above or below |1| and p-adjusted < 0.01 as defined by Wald statistics. The inventors analyzed the resulting hits for KEGG pathway association using gProfiler. […] They re-aligned significant LRT genes with DEG results and analyzed them with gProfiler.

The subject of another test is LNZ308 cells. Description: RNA-Sequencing (RNAseq). The format is cell-based, human. As to the method: as §1

On to `C[C@@H]1COCCN1c1cc(C2([S@](C)(=N)=O)CC2)nc(-c2cc[nH]c3nccc2-3)n1` [AZD6738, ceralasertib], for which, in the test on LN229 cells, the “PI3K-Akt signaling (KEGG pathway)” value is listed as “downregulated” and the “p53 signaling (KEGG pathway)” value was “strongly upregulated”. Also, in the test on LNZ308 cells, the “PI3K-Akt signaling (KEGG pathway)” value is listed as “upregulated”.
